Laboratory results taken from patent publication US11533912B2, “Use of cinnamate compounds in the control of fungal diseases of crops” (Institute of Plant Protection, Gansu Academy of …, priority 2019, dated 2022).
Where two headings read alike, the source gives them in different places.

Columns and labels:
zucchini = conditions: in vivo
From the text: The first application was started on August 26th, at the early onset of powdery mildew (the average disease index is 10.07). The instrument for application was Agrolex HD 400 Model hand operating knapsack sprayer, which employed a cone nozzle. Each agent was formulated into the desired concentrations according to the usage amount of the control clear water. Both sides of the leaves were sprayed evenly so that the leaves were wetted by the liquor without loss. […] Thereafter, applications were conducted every 7 days consecutively for 4 times. 10 days after the last application, the number of disease leaves at each grade of powdery mildew was investigated for the whole plant following the grading standard of 9 grades, to calculate the disease index and the control effect.

Botrytis cinerea = test: Ex vivo mycelial growth, growth rate method; format: cell-based; conditions: 1 mg/mL
Pyricularia grisea = test: microbe, parasite or virus in culture; format: cell-based
Phytophthora infestans [1] = format: cell-based; conditions: Phytophthora infestans (second line), 1 mg/mL
Mycosphaerlla melonis = test: Ex vivo mycelial growth, growth rate method; format: cell-based; conditions: 1 mg/mL
Rhizoctonia solani = test: Ex vivo mycelial growth, growth rate method; format: cell-based; conditions: 1 mg/mL
Phytophthora infestans [2] = format: cell-based; conditions: Phytophthora infestans (first line), 1 mg/mL
Exserohilum turcicum = test: Ex vivo mycelial growth, growth rate method; format: cell-based; conditions: 1 mg/mL
Valsa mali = test: Ex vivo mycelial growth, growth rate method; format: cell-based; conditions: 1 mg/mL
Sclerotinia sclerotiorum = test: Ex vivo mycelial growth, growth rate method; format: cell-based; conditions: 1 mg/mL
Phytophthora capsici = test: Ex vivo mycelial growth, growth rate method; format: cell-based
[3] = system: F. oxysporum f. sp. vasinfectum; test: Ex vivo mycelial growth, growth rate method; format: cell-based; conditions: 1 mg/mL
cucumber = test: Crop safety (phytotoxicity) in the cucumber field test; conditions: at the test doses (triazole control agents: 1500 fold liquid)
F. graminearum = test: microbe, parasite or virus in culture; format: cell-based
C. gossypii = test: Ex vivo mycelial growth, growth rate method; format: cell-based; conditions: 1 mg/mL
[4] = system: Erysiphe cucurbitacearum or Sphaerotheca cucurbitae; test: In-vivo control of zucchini powdery mildew in a greenhouse
Method: (2) In-Vivo Determination Method • Zucchini (Variety: Wuwei Xianglin extra-early 1st generation) were cultured in pots in a greenhouse, and inoculated with Erysiphe cucurbitacearum or Sphaerotheca cucurbitae at the stage of 3 to 4 leaves. […] Both sides of the leaves were sprayed evenly with a small hand-held sprayer so that the leaves were wetted by the liquor without loss. Applications were conducted every 7 days consecutively for 4 times. 10 days after the fourth application, the number of disease leaves at each grade of powdery mildew was investigated for the whole plant following the grading standard of 9 grades, to calculate the disease index and the control effect. The computational formula is as below: Disease index=[(Number of disease leaves at each grade×Corresponding grade value)/(Total number of investigated leaves×9)]×100; Control effect=(Disease index of the clear water control−Treated disease index)/Disease index of the clear water control×100.

[5] = system: damping-off (P. aphanidermatum, P capsici); test: In-vivo control of pepper damping-off in a greenhouse (sick soil); conditions: 0.80 mg/mL, 200 mL liquor per pot
Method: (§1) (2) In-Vivo Determination Method • Sick soil of damping-off (P. aphanidermatum, P capsici) was collected from the fields of tomatoes, eggplants and peppers in solar greenhouse, and mixed evenly in equal proportion. Tomatoes (Variety: Song Tian Fen Yang Yang, 100 grains), eggplants (Variety: Lanza No. 2 F1 long eggplant, 100 grains), pepper (Longjiao 2 F1, 100 grains) were seeded quantitatively with the sick soil in pots (diameter: 15 cm) in a greenhouse, additionally with sterile vermiculite as the control (each 100 grains for determining the germination rate). […] The computational formula is as below: Mortality of Seedlings (%)=[number of survival seedlings in the seeded grains−number of seeded grains×(100%−germination rate)]/number of seeded grains×100; Control Effect (%)=(mortality of control seedlings−mortality of treated seedlings)/mortality of control seedlings×100.

Coniella diplodiella = test: Ex vivo mycelial growth, growth rate method; format: cell-based; conditions: 1 mg/mL
Fusarium graminearum = test: microbe, parasite or virus in culture; format: cell-based
plant pathogenic fungi = test: organism not typed; format: cell-based; conditions: read-out: inhibition rate on mycelial growth, range over 9 fungi
[6] = system: Gaeumannomyces graminis var. graminis and G. graminis var. tritici; test: Ex vivo mycelial growth, growth rate method; format: cell-based; conditions: 1 mg/mL
[7] = system: Blumeria graminis f. sp. trilici; test: In-vivo control of wheat powdery mildew in a greenhouse; parameters: species or system Blumeria graminis f. sp. trilici on winter wheat
Thanatephorus cucumeris = test: Ex vivo mycelial growth, growth rate method; format: cell-based; conditions: 1 mg/mL
zucchini powdery mildew = test: Field efficiency test on zucchini powdery mildew; format: in vivo; conditions: 0.50 mg/mL
[8] = system: Botryosphaeriana berengeriana; test: Ex vivo mycelial growth, growth rate method (line 'Botryosphaeriana berengeriana', r23); format: cell-based; conditions: Botryosphaeriana berengeriana (first line), 1 mg/mL
F. verticillioide = test: Ex vivo mycelial growth, growth rate method; format: cell-based; conditions: 1 mg/mL
[9] = system: Botryosphaeria berengeriana; test: Ex vivo mycelial growth, growth rate method (line 'Botryosphaeria berengeriana', r34); format: cell-based; conditions: Botryosphaeria berengeriana (second line), 1 mg/mL
[10] = system: damping-off (P. aphanidermatum, P capsici); test: In-vivo control of tomato damping-off in a greenhouse (sick soil); conditions: 0.80 mg/mL, 200 mL liquor per pot
Method: as §1

Colletotrichum capsici = test: Ex vivo mycelial growth, growth rate method; format: cell-based; conditions: 1 mg/mL
Pythium aphanidermatum = test: Ex vivo mycelial growth, growth rate method; format: cell-based; conditions: 1 mg/mL
F. oxysporum f. sp. lini = test: Ex vivo mycelial growth, growth rate method; format: cell-based; conditions: 1 mg/mL
E. cichoracearum = test: Field efficiency test on cucumber powdery mildew; conditions: 0.50 mg/mL (active ingredients)
Method: The first application was started on Jun. 15, 2018, and E. cichoracearum was inoculated on June 17th (the diseased leaves were harvested from the solar greenhouse near the military airfield at Xiaguanying town, Yuzhong County, moisturized in the greenhouse for 2 days, then shredded, and filtered over a gauze, the filtrate was sprayed onto both sides of the cucumber leaves with the cone nozzle of an electric sprayer for inoculation). The second, third and fourth applications were conducted on June 23rd, July 2nd, and July 9th respectively, the water consumptions of which were adjusted promptly according to the amount of water desired for spraying evenly onto both sides of the control leaves. 10 days after the fourth application, the number of disease leaves at each grade of powdery mildew was investigated following the grading standard of 9 grades, to calculate the disease index and the control effect.

E. polygoni = test: In-vivo control of marrow bean powdery mildew in a greenhouse
Method: (2) In-Vivo Determination Method • Marrow bean (Variety: Thailand Jiadouwang) were cultured in pots in a greenhouse, and inoculated with E. polygoni at the stage of 4 leaves. […] Both sides of the leaves were sprayed evenly with a small hand-held sprayer so that the leaves were wetted by the liquor without loss. Applications were conducted every 7 days consecutively for 4 times. 10 days after the fourth application, the number of disease leaves at each grade of powdery mildew was investigated for the whole plant following the grading standard of 9 grades, to calculate the disease index and the control effect.

[11] = mycelial growth, Phytophthora capsici, 1 mg/mL
[12] = F. graminearum (second line), 1 mg/mL
[13] = Fusarium graminearum, read-out: Inhibition Rate
[14] = Fusarium oxysporum, mycelial growth

SMILES: COC(=O)C=Cc1ccc(OC)c(OC)c1 [Control Compound A, methyl 3,4-dimethoxy cinnamate, reference compound]
- safety for zucchini (zucchini): safe for zucchini and cucumber
- Average Diameter of the Colony (Botrytis cinerea): 2.27 cm
- Inhibition Rate (Botrytis cinerea; mycelial growth): 71.27%
- Average Diameter of the Colony (Pyricularia grisea; 1 mg/mL): 3.83 cm
- Inhibition Rate (Pyricularia grisea; mycelial growth, 1 mg/mL): 51.52%
- Average Diameter of the Colony (Phytophthora infestans [1]): 0.27 cm
- Inhibition Rate (Phytophthora infestans [1]; mycelial growth): 96.58%
- Average Diameter of the Colony (Mycosphaerlla melonis): 0.67 cm
- Inhibition Rate (Mycosphaerlla melonis; mycelial growth): 91.52%
- Average Diameter of the Colony (Rhizoctonia solani): 0.67 cm
- Inhibition Rate (Rhizoctonia solani; mycelial growth): 91.52%
- Average Diameter of the Colony (Phytophthora infestans [2]): 2.77 cm
- Inhibition Rate (Phytophthora infestans [2]; mycelial growth): 64.94%
- Average Diameter of the Colony (Exserohilum turcicum): 1.37 cm
- Inhibition Rate (Exserohilum turcicum; mycelial growth): 82.66%
- Average Diameter of the Colony (Valsa mali): 0.00 cm
- Inhibition Rate (Valsa mali; mycelial growth): 100%
- Average Diameter of the Colony (Sclerotinia sclerotiorum): 0.00 cm
- Inhibition Rate (Sclerotinia sclerotiorum; mycelial growth): 100%
- Average Diameter of the Colony (Phytophthora capsici; Phytophthora capsici, 1 mg/mL): 1.97 cm
- Inhibition Rate (Phytophthora capsici; [11]): 75.06%
- Average Diameter of the Colony [3]: 2.43 cm
- Inhibition Rate ([3]; mycelial growth): 69.24%
- phytotoxicity / safety for cucumber (cucumber): safe for zucchini and cucumber
- Average Diameter of the Colony (F. graminearum; [12]): 4.90 cm
- Inhibition Rate (F. graminearum; mycelial growth, F. graminearum (second line), 1 mg/mL): 37.98%
- Average Diameter of the Colony (C. gossypii): 3.83 cm
- Inhibition Rate (C. gossypii; mycelial growth): 51.52%

SMILES: CCOC(=O)/C=C/c1ccc(OC)c(F)c1 [ethyl 3-(3′-fluoro-4′-methoxyphenyl) acrylate]
- Control Effect ([4]; 0.20 mg/mL): 52.71%
- Control Effect ([4]; 0.333 mg/mL): 95.60%
- Control Effect ([4]; 0.50 mg/mL): 97.11%
- control effect on pepper damping-off [5]: 56.47%
- Average Diameter of the Colony (Coniella diplodiella): 0.00 cm
- inhibition at 1000 µg/mL (Coniella diplodiella; mycelial growth): 100%
- Average Diameter of the Colony (Botrytis cinerea): 1.35 cm
- inhibition at 1000 µg/mL (Botrytis cinerea; mycelial growth): 82%
- Average Diameter of the Colony (Pyricularia grisea; 1 mg/mL): 7.70 cm
- inhibition at 1000 µg/mL (Pyricularia grisea; read-out: Inhibition Rate): 14.4%
- Average Diameter of the Colony (Fusarium graminearum; Fusarium graminearum (first line), 1 mg/mL): 3.26 cm
- inhibition at 1000 µg/mL (Fusarium graminearum; [13]): 39.1%
- Average Diameter of the Colony (Phytophthora infestans [1]): 0.00 cm
- Average Diameter of the Colony (Mycosphaerlla melonis): 0.37 cm
- inhibition at 1000 µg/mL (Mycosphaerlla melonis; mycelial growth): 95.7%
- inhibition at 1000 µg/mL (plant pathogenic fungi): 82 to 100%
- Average Diameter of the Colony (Rhizoctonia solani): 0.00 cm
- inhibition at 1000 µg/mL (Rhizoctonia solani; mycelial growth): 100%
- Average Diameter of the Colony (Phytophthora infestans [2]): 1.40 cm
- Average Diameter of the Colony (Exserohilum turcicum): 0.10 cm
- inhibition at 1000 µg/mL (Exserohilum turcicum; mycelial growth): 98.4%
- Average Diameter of the Colony [6]: 2.29 cm
- inhibition at 1000 µg/mL ([6]; mycelial growth): 40%
- Control Effect ([7]; 0.143 mg/mL): 64.75%
- Control Effect ([7]; 0.20 mg/mL): 67.60%
- Average Diameter of the Colony (Thanatephorus cucumeris): 2.05 cm
- inhibition at 1000 µg/mL (Thanatephorus cucumeris; mycelial growth): 76.2%
- Average Diameter of the Colony (Valsa mali): 0.85 cm
- inhibition at 1000 µg/mL (Valsa mali; Cytospora mali, mycelial growth): 89.2%
- Control Effect (zucchini powdery mildew): 85.82%
- Average Diameter of the Colony (Sclerotinia sclerotiorum): 2.58 cm
- inhibition at 1000 µg/mL (Sclerotinia sclerotiorum; mycelial growth): 70%
- Average Diameter of the Colony [8]: 1.19 cm
- inhibition at 1000 µg/mL ([8]; mycelial growth): 79.1%
- Average Diameter of the Colony (Phytophthora capsici; Phytophthora capsici, 1 mg/mL): 1.26 cm
- inhibition at 1000 µg/mL (Phytophthora capsici; [11]): 76.2%
- antifungal activity on Phytophthora capsici compared with hymexazol (Phytophthora capsici; supplementary determination results): superior to that of the control agent, hymexazol
- Average Diameter of the Colony (F. verticillioide): 2.34 cm
- inhibition at 1000 µg/mL (F. verticillioide; mycelial growth): 30.8%
- Average Diameter of the Colony [3]: 4.45 cm
- inhibition at 1000 µg/mL [3, 14]: 38.5%
- Average Diameter of the Colony [9]: 1.72 cm
- inhibition at 1000 µg/mL ([9]; mycelial growth): 74.7%
- control effect on tomato damping-off [10]: 51.02%
- Average Diameter of the Colony (Colletotrichum capsici): 0.11 cm
- inhibition at 1000 µg/mL (Colletotrichum capsici; Colletotrichum truncatum, mycelial growth): 98.4%
- Average Diameter of the Colony (Pythium aphanidermatum): 2.60 cm
- inhibition at 1000 µg/mL (Pythium aphanidermatum; mycelial growth): 61.2%
- Average Diameter of the Colony (F. oxysporum f. sp. lini): 7.20 cm
- inhibition at 1000 µg/mL (F. oxysporum f. sp. lini; [14]): 20%
- control effect on cucumber powdery mildew (E. cichoracearum): 78.42%
- Control Effect (E. polygoni; 0.10 mg/mL): 77.26%
- Control Effect (E. polygoni; 0.143 mg/mL): 91.16%
- Control Effect (E. polygoni; 0.20 mg/mL): 94.51%
- Average Diameter of the Colony (F. graminearum; [12]): 2.77 cm
- inhibition at 1000 µg/mL (F. graminearum; [13]): 67.8%
- Average Diameter of the Colony (C. gossypii): 0.42 cm
- inhibition at 1000 µg/mL (C. gossypii; Colletotrichum gossypii, mycelial growth): 92.2%
